Measurements published in ChEMBL document CHEMBL4813981, “Synthesis and in vitro antibacterial activity of new aminothiazole-oximepiperidone cephalosporins” (2021).
In brackets after ≈: the same amount, converted by molar mass.

Experiments:
Klebsiella pneumoniae [1] = assay: Antibacterial activity against ESBLs positive Carbapenem-sensitive Klebsiella pneumoniae 17-2 assessed as reduction in bacterial growth in the presence of Avibactam; assay type: functional
Klebsiella pneumoniae [2] = assay: Antibacterial activity against ESBLs positive Carbapenem-sensitive Klebsiella pneumoniae 17-5 assessed as reduction in bacterial growth in the presence of Avibactam; assay type: functional
Klebsiella pneumoniae [3] = assay: Antibacterial activity against ESBLs positive Carbapenem-sensitive Klebsiella pneumoniae 17-13 assessed as reduction in bacterial growth in the presence of Avibactam; assay type: functional
Klebsiella pneumoniae [4] = assay: Antibacterial activity against ESBLs negative Carbapenem-sensitive Klebsiella pneumoniae 15-2 assessed as reduction in bacterial growth in the presence of Avibactam; assay type: functional
Escherichia coli [5] = assay: Antibacterial activity against ESBLs positive Carbapenem-sensitive Escherichia coli 17-2 assessed as reduction in bacterial growth in the presence of Avibactam; assay type: functional
Escherichia coli [6] = assay: Antibacterial activity against ESBLs positive Carbapenem-sensitive Escherichia coli 17-5 assessed as reduction in bacterial growth in the presence of Avibactam; assay type: functional
Enterobacter cloacae [7] = assay: Antibacterial activity against Enterobacter cloacae 17-1 assessed as reduction in bacterial growth in the presence of Avibactam; assay type: functional
Enterobacter cloacae [8] = assay: Antibacterial activity against Enterobacter cloacae 17-4 assessed as reduction in bacterial growth in the presence of Avibactam; assay type: functional
Klebsiella aerogenes [9] = assay: Antibacterial activity against Enterobacter aerogenes 15-4 assessed as reduction in bacterial growth in the presence of Avibactam; assay type: functional
Klebsiella aerogenes [10] = assay: Antibacterial activity against Enterobacter aerogenes 15-6 assessed as reduction in bacterial growth in the presence of Avibactam; assay type: functional
Pseudomonas aeruginosa [11] = assay: Antibacterial activity against Carbapenem- sensitive Pseudomonas aeruginosa 17-10 assessed as reduction in bacterial growth in the presence of Avibactam; assay type: functional
Klebsiella pneumoniae [12] = assay: Bactericidal activity against ESBLs negative Carbapenem-sensitive Klebsiella pneumoniae 17-17 assessed as reduction in bacterial growth; assay type: functional
Klebsiella pneumoniae [13] = assay: Ratio of MBC to MIC for Carbapenem- resistant Klebsiella pneumoniae KR 15-6 assessed as reduction in bacterial growth; assay type: functional
Klebsiella pneumoniae [14] = assay: Ratio of MBC to MIC for ESBLs positive Carbapenem-sensitive Klebsiella pneumoniae 17-2 assessed as reduction in bacterial growth; assay type: functional
Klebsiella pneumoniae [15] = assay: Ratio of MBC to MIC for ESBLs negative Carbapenem-sensitive Klebsiella pneumoniae 17-16 assessed as reduction in bacterial growth; assay type: functional
Escherichia coli [16] = assay: Ratio of MBC to MIC for ESBLs negative Carbapenem-sensitive Escherichia coli 17-7 assessed as reduction in bacterial growth; assay type: functional
Enterobacter cloacae [17] = assay: Ratio of MBC to MIC for Enterobacter cloacae 17-3 assessed as reduction in bacterial growth; assay type: functional
Enterobacter cloacae [18] = assay: Ratio of MBC to MIC for Enterobacter cloacae 17-9 assessed as reduction in bacterial growth; assay type: functional
Klebsiella aerogenes [19] = assay: Ratio of MBC to MIC for Enterobacter aerogenes 17-1 assessed as reduction in bacterial growth; assay type: functional
Pseudomonas aeruginosa [20] = assay: Ratio of MBC to MIC for carbapenem-sensitive Pseudomonas aeruginosa 17-9 assessed as reduction in bacterial growth; assay type: functional
Pseudomonas aeruginosa [21] = assay: Ratio of MBC to MIC for carbapenem-sensitive Pseudomonas aeruginosa 17-10 assessed as reduction in bacterial growth; assay type: functional
Pseudomonas aeruginosa [22] = assay: Ratio of MBC to MIC for carbapenem-sensitive Pseudomonas aeruginosa 17-26 assessed as reduction in bacterial growth; assay type: functional
Pseudomonas aeruginosa [23] = assay: Ratio of MBC to MIC for carbapenem-sensitive Pseudomonas aeruginosa 17-29 assessed as reduction in bacterial growth; assay type: functional
Pseudomonas aeruginosa [24] = assay: Ratio of MBC to MIC for Pseudomonas aeruginosa ATCC 27853 assessed as reduction in bacterial growth; assay type: functional
Klebsiella pneumoniae [25] = assay: Ratio of MBC to MIC for Klebsiella pneumoniae ATCC BAA-1705 assessed as reduction in bacterial growth; assay type: functional
Klebsiella pneumoniae [26] = assay: Ratio of MBC to MIC for Carbapenem-resistant Klebsiella pneumoniae KR 15-8 assessed as reduction in bacterial growth in the presence of Avibactam; assay type: functional
Escherichia coli [27] = assay: Ratio of MBC to MIC for ESBLs positive carbapenem-negative Escherichia coli 17-3 assessed as reduction in bacterial growth in the presence of Avibactam; assay type: functional
Escherichia coli [28] = assay: Ratio of MBC to MIC for ESBLs positive carbapenem-negative Escherichia coli 17-18 assessed as reduction in bacterial growth in the presence of Avibactam; assay type: functional
Enterobacter cloacae [29] = assay: Ratio of MBC to MIC for Enterobacter cloacae 17-2 assessed as reduction in bacterial growth in the presence of Avibactam; assay type: functional
Enterobacter cloacae [30] = assay: Ratio of MBC to MIC for Enterobacter cloacae 17-10 assessed as reduction in bacterial growth in the presence of Avibactam; assay type: functional
Klebsiella aerogenes [31] = assay: Ratio of MBC to MIC for Enterobacter aerogenes 17-1 assessed as reduction in bacterial growth in the presence of Avibactam; assay type: functional
Klebsiella aerogenes [32] = assay: Ratio of MBC to MIC for Enterobacter aerogenes 17-3 assessed as reduction in bacterial growth in the presence of Avibactam; assay type: functional
Klebsiella aerogenes [33] = assay: Ratio of MBC to MIC for Enterobacter aerogenes 15-4 assessed as reduction in bacterial growth in the presence of Avibactam; assay type: functional
Pseudomonas aeruginosa [34] = assay: Ratio of MBC to MIC for carbapenem-sensitive Pseudomonas aeruginosa 17-9 assessed as reduction in bacterial growth in the presence of Avibactam; assay type: functional
Escherichia coli [35] = assay: Ratio of MBC to MIC for Escherichia coli NCTC 13353 assessed as reduction in bacterial growth in the presence of Avibactam; assay type: functional
Enterobacter cloacae [36] = assay: Antibacterial activity against Enterobacter cloacae 17-9 assessed as reduction in bacterial growth
Acinetobacter baumannii [37] = assay: Antibacterial activity against Carbapenem- resistant Acinetobacter baumannii 17-3 assessed as reduction in bacterial growth
Acinetobacter baumannii [38] = assay: Antibacterial activity against Carbapenem- resistant Acinetobacter baumannii 17-11 assessed as reduction in bacterial growth
Escherichia coli [39] = assay: Antibacterial activity against ESBLs positive Carbapenem-sensitive Escherichia coli 17-10 assessed as reduction in bacterial growth
Acinetobacter baumannii [40] = assay: Bactericidal activity against Carbapenem- resistant Acinetobacter baumannii 17-3 assessed as reduction in bacterial growth; assay type: functional
Acinetobacter baumannii [41] = assay: Bactericidal activity against Carbapenem- resistant Acinetobacter baumannii 17-11 assessed as reduction in bacterial growth; assay type: functional
Enterobacter cloacae [42] = assay: Bactericidal activity against Enterobacter cloacae 17-8 assessed as reduction in bacterial growth; assay type: functional
Enterobacter cloacae [43] = assay: Bactericidal activity against Enterobacter cloacae 17-9 assessed as reduction in bacterial growth; assay type: functional

## Nc1nc(/C(=N/OCc2cc(=O)c(O)cn2O)C(=O)N[C@@H]2C(=O)N3C(C(=O)O)=CCS[C@H]23)cs1
Klebsiella pneumoniae [1]
  MIC: 0.125 µg/mL
Klebsiella pneumoniae [2]
  MIC: 1 µg/mL
Klebsiella pneumoniae [3]
  MIC: ≤ 0.03 µg/mL
Klebsiella pneumoniae [4]
  MIC: ≤ 0.03 µg/mL
Escherichia coli [5]
  MIC: 0.25 µg/mL
Escherichia coli [6]
  MIC: 1 µg/mL
Enterobacter cloacae [7]
  MIC: 1 µg/mL
Enterobacter cloacae [8]
  MIC: 0.5 µg/mL
Klebsiella aerogenes [9]
  MIC: 0.5 µg/mL
Klebsiella aerogenes [10]
  MIC: 0.5 µg/mL
Pseudomonas aeruginosa [11]
  MIC: 2 µg/mL
Klebsiella pneumoniae [12]
  MBC: 0.25 µg/mL (≈ 0.492 µM)
Klebsiella pneumoniae [13]
  Ratio: 4
Klebsiella pneumoniae [14]
  Ratio: 1
Klebsiella pneumoniae [15]
  Ratio: 1
Escherichia coli [16]
  Ratio: 2
Enterobacter cloacae [17]
  Ratio: 1
Enterobacter cloacae [18]
  Ratio: 1
Klebsiella aerogenes [19]
  Ratio: 2
Pseudomonas aeruginosa [20]
  Ratio: 4
Pseudomonas aeruginosa [21]
  Ratio: 4
Pseudomonas aeruginosa [22]
  Ratio: >8
Pseudomonas aeruginosa [23]
  Ratio: 4
Pseudomonas aeruginosa [24]
  Ratio: 16
Klebsiella pneumoniae [25]
  Ratio: >1
Klebsiella pneumoniae [26]
  Ratio: 4
Escherichia coli [27]
  Ratio: 2
Escherichia coli [28]
  Ratio: 2
Enterobacter cloacae [29]
  Ratio: 8
Enterobacter cloacae [30]
  Ratio: 2
Klebsiella aerogenes [31]
  Ratio: 2
Klebsiella aerogenes [32]
  Ratio: 1
Klebsiella aerogenes [33]
  Ratio: 2
Pseudomonas aeruginosa [34]
  Ratio: 2
Escherichia coli [35]
  Ratio: 1
Enterobacter cloacae [36]
  MIC: 8 µg/mL (≈ 15.7 µM)
Acinetobacter baumannii [37]
  MIC: > 64 µg/mL
Acinetobacter baumannii [38]
  MIC: > 64 µg/mL
Escherichia coli [39]
  MIC: 4 µg/mL (≈ 7.87 µM)

## CC(C)(O/N=C(\C(=O)N[C@@H]1C(=O)N2C(C(=O)[O-])=C(C[n+]3ccccc3)CS[C@H]12)c1csc(N)n1)C(=O)O [CEFTAZIDIME]
Acinetobacter baumannii [40]
  MBC: 64 µg/mL (≈ 117 µM)
Acinetobacter baumannii [41]
  MBC: > 64 µg/mL
Enterobacter cloacae [42]
  MBC: 1 µg/mL (≈ 1.83 µM)
Enterobacter cloacae [43]
  MBC: > 4 µg/mL
